Experimental data from paper PMC7312356 (International Journal of Molecular Sciences, 2020).
pKd: −log10 of the molar value.

Biological target: T1, SgGAPDH (Streptococcus gordonii, UniProt Q68AZ3)
T1 construct: gene GAPDH
Assay: biochemical

T1 sequence (Q68AZ3 entry or part of it): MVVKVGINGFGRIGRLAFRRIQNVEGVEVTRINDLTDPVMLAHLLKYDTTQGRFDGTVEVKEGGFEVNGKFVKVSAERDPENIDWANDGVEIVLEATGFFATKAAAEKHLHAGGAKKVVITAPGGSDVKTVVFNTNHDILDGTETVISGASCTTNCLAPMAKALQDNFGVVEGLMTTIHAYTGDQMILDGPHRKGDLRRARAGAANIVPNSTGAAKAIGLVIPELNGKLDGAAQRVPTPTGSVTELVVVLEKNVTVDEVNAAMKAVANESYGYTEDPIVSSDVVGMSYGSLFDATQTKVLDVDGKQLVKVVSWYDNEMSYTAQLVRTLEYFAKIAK

Structure (SMILES): C=CC1=C(C)C2=Cc3c(C=C)c(C)c4[n]3[Fe]([Cl])[n]3c(c(C)c(CCC(=O)O)c3=CC3=NC(=C4)C(C)=C3CCC(=O)O)=CC1=N2 [Fe(III)heme]
- pKd: 5.77
